Measurements as given in patent US8618289B2 (Ambit Biosciences Corporation, priority 2008, dated 2013).

Assays:
A375 cells = test: cells; conditions: Homo sapiens, A-375, read-out: A375 Viability EC50
RAF kinases [1] = molecular target: RAF kinases (Homo sapiens, UniProt P04049); test: biochemical
RAF kinases [2] = molecular target: RAF kinases (Homo sapiens, UniProt P15056); test: biochemical
[3] = test system: MEK1 phosphorylation in the A375 human melanoma cell line; test: cells; conditions: A-375, read-out: pMEK IC50

Sequence of RAF kinases (Homo sapiens, UniProt P04049) (P04049 whole entry): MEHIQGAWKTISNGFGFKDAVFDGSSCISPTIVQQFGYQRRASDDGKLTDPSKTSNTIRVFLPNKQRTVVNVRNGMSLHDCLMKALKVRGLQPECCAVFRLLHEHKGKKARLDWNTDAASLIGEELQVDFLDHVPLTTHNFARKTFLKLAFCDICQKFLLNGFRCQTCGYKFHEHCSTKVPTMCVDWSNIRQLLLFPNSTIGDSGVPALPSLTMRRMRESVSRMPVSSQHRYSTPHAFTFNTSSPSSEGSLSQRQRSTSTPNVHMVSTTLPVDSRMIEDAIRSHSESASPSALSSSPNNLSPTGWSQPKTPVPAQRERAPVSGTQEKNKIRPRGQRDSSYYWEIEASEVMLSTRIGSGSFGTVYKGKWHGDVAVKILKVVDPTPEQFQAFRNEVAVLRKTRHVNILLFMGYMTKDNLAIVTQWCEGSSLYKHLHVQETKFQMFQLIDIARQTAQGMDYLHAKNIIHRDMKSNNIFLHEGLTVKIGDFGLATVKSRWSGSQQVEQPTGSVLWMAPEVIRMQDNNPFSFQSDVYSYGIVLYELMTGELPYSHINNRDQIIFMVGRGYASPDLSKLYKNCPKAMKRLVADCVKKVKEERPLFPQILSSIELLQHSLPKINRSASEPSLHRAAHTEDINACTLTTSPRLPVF
Sequence of RAF kinases (Homo sapiens, UniProt P15056) (P15056 whole entry): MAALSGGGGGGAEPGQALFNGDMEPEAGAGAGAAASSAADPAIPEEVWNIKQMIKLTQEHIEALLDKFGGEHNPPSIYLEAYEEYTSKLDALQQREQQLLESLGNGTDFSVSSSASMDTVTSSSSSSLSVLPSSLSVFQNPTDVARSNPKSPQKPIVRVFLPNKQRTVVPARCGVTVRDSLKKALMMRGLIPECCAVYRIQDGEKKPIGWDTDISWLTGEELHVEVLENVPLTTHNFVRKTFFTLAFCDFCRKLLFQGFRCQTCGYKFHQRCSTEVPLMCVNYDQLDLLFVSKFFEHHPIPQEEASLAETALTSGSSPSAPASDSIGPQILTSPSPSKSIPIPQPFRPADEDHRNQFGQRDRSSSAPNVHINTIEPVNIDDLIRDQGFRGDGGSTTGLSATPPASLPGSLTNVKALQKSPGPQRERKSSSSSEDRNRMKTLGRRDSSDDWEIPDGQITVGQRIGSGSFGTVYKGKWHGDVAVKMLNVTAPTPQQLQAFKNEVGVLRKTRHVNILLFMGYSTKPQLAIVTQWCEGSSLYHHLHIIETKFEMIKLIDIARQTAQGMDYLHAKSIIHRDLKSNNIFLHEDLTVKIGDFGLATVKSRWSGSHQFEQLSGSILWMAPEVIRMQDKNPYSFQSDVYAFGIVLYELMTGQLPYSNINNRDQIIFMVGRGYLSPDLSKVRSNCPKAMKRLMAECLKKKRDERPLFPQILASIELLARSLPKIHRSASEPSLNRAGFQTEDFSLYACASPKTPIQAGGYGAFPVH

Row | SMILES | EC50 (A375 cells) [nM] | Kd (RAF kinases [1]) [nM] | Kd (RAF kinases [2]) [nM] | IC50 [3] [nM]
1 | COc1cc2ncnc(Sc3cccc(NC(=O)Nc4cc(C(C)(C)C)on4)c3)c2cc1OCCCN1CCN(C)CC1 [Ex 59, 1-(5-tert-butylisoxazol-3-yl)-3-(3-(7-methoxy-6-(3-(4-methylpiperazin-1-yl)propoxy)quinazolin-4-ylthio)phenyl)urea] | > 1000 | 250 to 500 | 250 to 500 | < 250
2 | COc1cc2ncnc(Sc3cccc(NC(=O)Nc4cc(C(C)(C)C)on4)c3)c2cc1OCCCN1CCN(S(C)(=O)=O)CC1 [Ex 60, 1-(5-tert-butylisoxazol-3-yl)-3-(3-(7-methoxy-6-(3-(4-(methylsulfonyl)piperazin-1-yl)propoxy)quinazolin-4-ylthio)phenyl) urea] | 250 to 500 | 250 to 500 | 500 to 1000 | < 250
3 | COc1cc2ncnc(Sc3cccc(NC(=O)Nc4cc(C(C)(C)C)on4)c3)c2cc1OCCN1CCC(CO)CC1 [Ex 66, 1-(5-tert-butylisoxazol-3-yl)-3-(3-(6-(2-(4-(hydroxymethyl)piperidin-1-yl)ethoxy)-7-methoxyquinazolin-4-ylthio)phenyl)urea] | > 1000 | 500 to 1000 | 500 to 1000 | < 250
4 | COc1cc2ncnc(Sc3cccc(NC(=O)Nc4cc(C(C)(C)C)on4)c3)c2cc1OCCN1CCN(C)CC1 [Ex 67, 1-(5-tert-butylisoxazol-3-yl)-3-(3-(7-methoxy-6-(2-(4-methylpiperazin-1-yl)ethoxy)quinazolin-4-ylthio)phenyl)urea] | > 1000 | 250 to 500 | 250 to 500 | < 250
5 | COc1cc2ncnc(Sc3cccc(NC(=O)Nc4cc(C(C)(C)C)on4)c3)c2cc1OCCN1CCN(CCO)CC1 [Ex 68, 1-(5-tert-butylisoxazol-3-yl)-3-(3-(6-(2-(4-(2-hydroxyethyl)piperazin-1-yl)ethoxy)-7-methoxyquinazolin-4-ylthio)phenyl)urea] | 500 to 1000 | 250 to 500 | 250 to 500 | < 250
6 | COc1cc2ncnc(Sc3cccc(NC(=O)Nc4cc(C(C)(C)C)on4)c3)c2cc1OCCN1CCN(S(C)(=O)=O)CC1 [Ex 69, 1-(5-tert-butylisoxazol-3-yl)-3-(3-(7-methoxy-6-(2-(4-(methylsulfonyl)piperazin-1-yl)ethoxy)quinazolin-4-ylthio)phenyl)urea] | 250 to 500 | 250 to 500 | 250 to 500 | < 250
7 | COc1cc2c(Sc3cccc(NC(=O)Nc4cc(C(C)(C)C)on4)c3)ncnc2cc1OCCCN1CCN(C)CC1 [Ex 73, 1-(5-tert-butylisoxazol-3-yl)-3-(3-(6-methoxy-7-(3-(4-methylpiperazin-1-yl)propoxy)quinazolin-4-ylthio)phenyl)urea] | 500 to 1000 | 250 to 500 | 250 to 500 | < 250
8 | COc1cc2c(Sc3cccc(NC(=O)Nc4cc(C(C)(C)C)on4)c3)ncnc2cc1OCCCN1CCN(CCO)CC1 [Ex 75, 1-(5-tert-butylisoxazol-3-yl)-3-(3-(7-(3-(4-(2-hydroxyethyl)piperazin-1-yl)propoxy)-6-methoxyquinazolin-4-ylthio)phenyl)urea] | > 1000 | 250 to 500 | 250 to 500 | < 250
9 | COc1cc2c(Sc3cccc(NC(=O)Nc4cc(C(C)(C)C)on4)c3)ncnc2cc1OCCCN1CCCCC1 [Ex 76, 1-(5-tert-butylisoxazol-3-yl)-3-(3-(6-methoxy-7-(3-(piperidin-1-yl)propoxy)quinazolin-4-ylthio)phenyl)urea] | > 1000 | 500 to 1000 | 250 to 500 | < 250
10 | COc1cc2c(Sc3cccc(NC(=O)Nc4cc(C(C)(C)C)on4)c3)ncnc2cc1OCCCN1CCN(S(C)(=O)=O)CC1 [Ex 77, 1-(5-tert-butylisoxazol-3-yl)-3-(3-(6-methoxy-7-(3-(4-(methylsulfonyl)piperazin-1-yl)propoxy)quinazolin-4-ylthio)phenyl)urea] | 250 to 500 | 500 to 1000 | 500 to 1000 | < 250
11 | COc1cc2c(Sc3cccc(NC(=O)Nc4cc(C(C)(C)C)on4)c3)ncnc2cc1OCCN1CCOCC1 [Ex 79, 1-(5-tert-butylisoxazol-3-yl)-3-(3-(6-methoxy-7-(2-morpholinoethoxy)quinazolin-4-ylthio)phenyl)urea] | > 1000 | 500 to 1000 | 500 to 1000 | < 250
12 | COc1cc2c(Sc3cccc(NC(=O)Nc4cc(C(C)(C)C)on4)c3)ncnc2cc1OCCN1CCCCC1 [Ex 80, 1-(5-tert-butylisoxazol-3-yl)-3-(3-(6-methoxy-7-(2-(piperidin-1-yl)ethoxy)quinazolin-4-ylthio)phenyl)urea] | > 1000 | 250 to 500 | 250 to 500 | 250 to 500
13 | COc1cc2c(Sc3cccc(NC(=O)Nc4cc(C(C)(C)C)on4)c3)ncnc2cc1OCCN1CCN(S(C)(=O)=O)CC1 [Ex 81, 1-(5-tert-butylisoxazol-3-yl)-3-(3-(6-methoxy-7-(2-(4-(methylsulfonyl)piperazin-1-yl)ethoxy)quinazolin-4-ylthio)phenyl)urea] | 250 to 500 | 500 to 1000 | 500 to 1000 | < 250
14 | COc1cc2c(Sc3cccc(NC(=O)Nc4cc(C(C)(C)C)on4)c3)ncnc2cc1OCCN1CCN(C)CC1 [Ex 83, 1-(5-tert-butylisoxazol-3-yl)-3-(3-(6-methoxy-7-(2-(4-methylpiperazin-1-yl)ethoxy)quinazolin-4-ylthio)phenyl)urea] | > 1000 | 250 to 500 | 250 to 500 | < 250
15 | CC(C)(C)c1cc(NC(=O)Nc2cccc(Sc3ncnc4ccc(OCCCN5CCS(=O)(=O)CC5)cc34)c2)no1 [Ex 90, 1-(5-tert-butyl-isoxazol-3-yl)-3-(3-{6-[3-(1,1-dioxo-thiomorpholin-4-yl)-propoxy]-quinazolin-4-ylsulfanyl}-phenyl)-urea] | > 1000 | 250 to 500 | 500 to 1000 | < 250
16 | COc1cc2ncnc(Oc3cccc(NC(=O)Nc4cc(C(C)(C)C)on4)c3)c2cc1OCCN1CCS(=O)(=O)CC1 [Ex 91, 1-(5-tert-butyl-isoxazol-3-yl)-3-(3-{6-[2-(1,1-dioxo-thiomorpholin-4-yl)-ethoxy]-7-methoxy-quinazolin-4-yloxy}-phenyl)-urea] | < 250 | 250 to 500 | 250 to 500 | < 250
17 | CC(C)(C)c1cc(NC(=O)Nc2cccc(Oc3ncnc4ccc(-c5ccc(CNCCS(C)(=O)=O)o5)cc34)c2)no1 [Ex 92, 1-(5-tert-butylisoxazol-3-yl)-3-{3-[6-(5-{[2-(methylsulfonyl)ethylamino]methyl}furan-2-yl)quinazolin-4-yloxy]phenyl}urea] | < 250 | 250 to 500 | 500 to 1000 | < 250
18 | COc1cc2c(Oc3cccc(NC(=O)Nc4cc(C(C)(C)C)on4)c3)ncnc2cc1O [Ex 95, 1-(5-tert-butylisoxazol-3-yl)-3-(3-(7-hydroxy-6-methoxyquinazolin-4-yloxy)phenyl)urea] | < 250 | 250 to 500 | 500 to 1000 | < 250
19 | COc1cc2c(Oc3cccc(NC(=O)Nc4cc(C(C)(C)C)on4)c3)ncnc2cc1O[C@H]1CCN(C)C1 [Ex 97, (S)-1-(5-tert-butylisoxazol-3-yl)-3-(3-(6-methoxy-7-(1-methylpyrrolidin-3-yloxy)quinazolin-4-yloxy)phenyl)urea mono acetate] | > 1000 | 500 to 1000 | 250 to 500 | 250 to 500
